Tests used:
Test in all cases: relative viability (nuclei count vs DMSO), 5 days (fraction); higher = more cells survive
[1] = compound: CCC1=CN=CN=C1N2CCN(CC2)CC3=NC4=C(N3)C=C(C=C4)C(F)(F)F + Cc1nc(Nc2ncc(C(=O)Nc3c(C)cccc3Cl)s2)cc(N2CCN(CCO)CC2)n1 [Dasatinib] (partner 0.075 µM)
Procedure, shortened: (§1)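 After 5 days of treatment, lung cancer cells in 1536-well plates were fixed and stained in a single step (final 0.05% Triton X-100, 1% formaldehyde, 1 ug/ml Hoechst) and their nuclei counted on 4× images. Treatment had been applied by pin tool the day after seeding as one drug alone or as a fixed anchor-drug dose with five library-drug doses (not always all listed) in √10 steps. Relative viability is the nuclei count of treated wells divided by that of vehicle wells, and values are medians of duplicate plates.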

[2] = compound: CCn1c(-c2nonc2N)nc2cnc(Oc3cccc(NC(=O)c4ccc(OCCN5CCOCC5)cc4)c3)cc21 + CC(=O)c1c(C)c2cnc(Nc3ccc(N4CCNCC4)cn3)nc2n(C2CCCC2)c1=O [Palbociclib] (partner 0.5 µM)
Procedure, shortened: as §1

[3] = compound: CCn1c(-c2nonc2N)nc2cnc(Oc3cccc(NC(=O)c4ccc(OCCN5CCOCC5)cc4)c3)cc21 + Nc1nc2[nH]cc(CCc3ccc(C(=O)N[C@@H](CCC(=O)O)C(=O)O)cc3)c2c(=O)[nH]1 [Pemetrexed] (partner 0.2 µM)
Procedure, shortened: as §1

[4] = compound: CCn1c(-c2nonc2N)nc2cnc(Oc3cccc(NC(=O)c4ccc(OCCN5CCOCC5)cc4)c3)cc21 + CC1(C)CCC(c2ccc(Cl)cc2)=C(CN2CCN(c3ccc(C(=O)NS(=O)(=O)c4ccc(N[C@H](CCN5CCOCC5)CSc5ccccc5)c(S(=O)(=O)C(F)(F)F)c4)cc3)CC2)C1 [Navitoclax] (partner 0.5 µM)
Procedure, shortened: as §1

Row | Cell Line | relative viability ([1]; first compound 0.04 µM) | relative viability ([1]; first compound 0.1265 µM) | relative viability ([1]; first compound 0.4 µM) | relative viability ([1]; first compound 1.265 µM) | relative viability ([1]; first compound 4 µM) | relative viability ([2]; first compound 0.04 µM) | relative viability ([2]; first compound 0.1265 µM) | relative viability ([2]; first compound 0.4 µM) | relative viability ([2]; first compound 1.265 µM) | relative viability ([2]; first compound 4 µM) | relative viability ([3]; first compound 0.04 µM) | relative viability ([3]; first compound 0.1265 µM) | relative viability ([3]; first compound 0.4 µM) | relative viability ([3]; first compound 1.265 µM) | relative viability ([3]; first compound 4 µM) | relative viability ([4]; first compound 0.04 µM) | relative viability ([4]; first compound 0.1265 µM) | relative viability ([4]; first compound 0.4 µM) | relative viability ([4]; first compound 1.265 µM) | relative viability ([4]; first compound 4 µM)
1 | HCC-366 | 0.566 | 0.655 | 0.567 | 0.583 | 0.629 | 0.367 | 0.375 | 0.354 | 0.105 | 0.0645 | 0.166 | 0.173 | 0.131 | 0.0447 | 0.0523 | 1.25 | 1.14 | 1.04 | 0.178 | 0.0486
2 | HCC-827 | 0.323 | 0.298 | 0.313 | 0.364 | 0.355 | 0.49 | 0.541 | 0.501 | 0.455 | 0.481 | 0.27 | 0.261 | 0.266 | 0.267 | 0.285 | 1.09 | 0.98 | 0.982 | 1.02 | 0.841
3 | HOP-62 | 0.589 | 0.584 | 0.539 | 0.626 | 0.653 | 0.45 | 0.371 | 0.424 | 0.279 | 0.365 | 0.319 | 0.309 | 0.284 | 0.228 | 0.252 | 1.26 | 1.07 | 1.05 |  | 1.06
4 | IA-LM |  |  |  |  |  |  |  |  |  |  |  |  |  |  |  | 1.06 | 1.03 | 0.781 | 0.799 | 0.725
5 | LC-2-ad | 0.489 | 0.542 | 0.508 | 0.507 | 0.484 | 0.563 | 0.469 | 0.455 | 0.355 | 0.307 | 0.257 | 0.269 | 0.241 | 0.199 | 0.206 | 0.522 | 0.439 | 0.508 | 0.214 | 0.167
6 | LCLC-97TM1 | 0.881 | 0.765 | 0.668 | 0.816 | 0.897 | 0.276 | 0.245 |  | 0.27 | 0.281 | 0.228 | 0.196 |  | 0.192 | 0.18 | 0.481 | 0.333 |  | 0.463 | 0.442
7 | LCLC-103H | 0.473 | 0.444 | 0.414 | 0.483 | 0.474 | 0.478 | 0.464 | 0.485 | 0.429 | 0.518 | 0.394 | 0.444 | 0.36 | 0.345 | 0.419 |  |  |  |  | 
8 | LK-2 | 0.325 | 0.314 | 0.257 | 0.258 | 0.318 | 0.627 | 0.787 | 0.541 | 0.568 | 0.673 | 0.308 | 0.354 | 0.151 | 0.139 | 0.265 | 0.989 | 0.928 | 0.467 | 0.349 | 0.686
9 | LOU-NH91 | 0.477 | 0.466 | 0.485 | 0.533 | 0.568 | 0.508 | 0.476 | 0.502 | 0.422 | 0.421 | 0.371 | 0.355 | 0.355 | 0.288 | 0.356 | 0.8 | 0.597 | 0.557 | 0.392 | 0.447
